Measured values from the NIST ThermoML archive (doi:10.1021/je4001894).
± gives the expanded uncertainty stated by the source.

Assay: activity coefficient (dimensionless); of the first substance listed, at infinite dilution; xn = mol fraction of the nth substance listed
Conditions: 101 kPa, Liquid, Chromatography, x1 = 0

Row | Compound | activity coefficient (323.15 K) | activity coefficient (333.15 K) | activity coefficient (343.15 K)
1 | CCCCO [butan-1-ol] + CCC[N+]1(C)CCCC1.O=S(=O)([N-]S(=O)(=O)C(F)(F)F)C(F)(F)F | 2.79 ± 0.19 | 2.35 ± 0.16 | 2.27 ± 0.15
2 | CCCCCC [hexane] + CCCC[N+]1(C)CCCC1.O=S(=O)([N-]S(=O)(=O)C(F)(F)F)C(F)(F)F | 13.9 ± 0.95 | 13.6 ± 0.93 | 12.6 ± 0.86
3 | CC1CCCC1 [methylcyclopentane] + CCC[N+]1(C)CCCC1.O=S(=O)([N-]S(=O)(=O)C(F)(F)F)C(F)(F)F | 10.3 ± 0.7 | 10.3 ± 0.7 | 9.16 ± 0.63
4 | C1COCCO1 [1,4-dioxane] + CCCC[N+]1(C)CCCC1.O=S(=O)([N-]S(=O)(=O)C(F)(F)F)C(F)(F)F | 0.71 ± 0.05 | 0.72 ± 0.05 | 0.72 ± 0.05
5 | Cc1ccccc1 [toluene] + CCCC[N+]1(C)CCCC1.O=S(=O)([N-]S(=O)(=O)C(F)(F)F)C(F)(F)F | 1.25 ± 0.08 | 1.27 ± 0.08 | 1.29 ± 0.08
6 | CCCCCCCCCC [decane] + CCCC[N+]1(C)CCCC1.O=S(=O)([N-]S(=O)(=O)C(F)(F)F)C(F)(F)F | 54.3 ± 3.7 | 49 ± 3.4 | 44.2 ± 3
7 | CCN(CC)CC [triethylamine] + CCC[N+]1(C)CCCC1.O=S(=O)([N-]S(=O)(=O)C(F)(F)F)C(F)(F)F | 8.98 ± 0.61 | 8.1 ± 0.55 | 7.19 ± 0.49
8 | Cc1ccc(C)cc1 [1,4-dimethylbenzene] + CCCC[N+]1(C)CCCC1.O=S(=O)([N-]S(=O)(=O)C(F)(F)F)C(F)(F)F | 1.78 ± 0.12 | 1.8 ± 0.12 | 1.81 ± 0.12
9 | Cc1ccccc1C [1,2-dimethylbenzene] + CCCC[N+]1(C)CCCC1.O=S(=O)([N-]S(=O)(=O)C(F)(F)F)C(F)(F)F | 1.61 ± 0.11 | 1.64 ± 0.11 | 1.66 ± 0.11
10 | CCCC(C)=O [pentan-2-one] + CCC[N+]1(C)CCCC1.O=S(=O)([N-]S(=O)(=O)C(F)(F)F)C(F)(F)F | 0.88 ± 0.06 | 0.88 ± 0.06 | 0.91 ± 0.06
11 | CC(C)CO [2-methyl-1-propanol] + CCC[N+]1(C)CCCC1.O=S(=O)([N-]S(=O)(=O)C(F)(F)F)C(F)(F)F | 2.51 ± 0.17 | 2.29 ± 0.16 | 2.1 ± 0.14
12 | c1ccncc1 [pyridine] + CCCC[N+]1(C)CCCC1.O=S(=O)([N-]S(=O)(=O)C(F)(F)F)C(F)(F)F | 0.59 ± 0.04 | 0.59 ± 0.04 | 0.59 ± 0.04
13 | CCCO [propan-1-ol] + CCCC[N+]1(C)CCCC1.O=S(=O)([N-]S(=O)(=O)C(F)(F)F)C(F)(F)F | 2.07 ± 0.14 | 1.87 ± 0.13 | 1.68 ± 0.11
14 | CCCCCCCCCCCC [dodecane] + CCCC[N+]1(C)CCCC1.O=S(=O)([N-]S(=O)(=O)C(F)(F)F)C(F)(F)F | 105 ± 7.2 | 93.8 ± 6.4 | 83 ± 5.7
15 | CC(C)O [propan-2-ol] + CCCC[N+]1(C)CCCC1.O=S(=O)([N-]S(=O)(=O)C(F)(F)F)C(F)(F)F | 1.9 ± 0.13 | 1.72 ± 0.12 | 1.57 ± 0.1
16 | CC(C)OC(C)C [diisopropyl ether] + CCCC[N+]1(C)CCCC1.O=S(=O)([N-]S(=O)(=O)C(F)(F)F)C(F)(F)F | 5.19 ± 0.35 | 5.28 ± 0.36 | 5.4 ± 0.37
17 | c1ccsc1 [thiophene] + CCC[N+]1(C)CCCC1.O=S(=O)([N-]S(=O)(=O)C(F)(F)F)C(F)(F)F | 0.86 ± 0.06 | 0.88 ± 0.06 | 0.89 ± 0.06
18 | c1ccsc1 [thiophene] + CCCC[N+]1(C)CCCC1.O=S(=O)([N-]S(=O)(=O)C(F)(F)F)C(F)(F)F | 0.82 ± 0.05 | 0.83 ± 0.05 | 0.84 ± 0.05
19 | CCCCCCCC [octane] + CCCC[N+]1(C)CCCC1.O=S(=O)([N-]S(=O)(=O)C(F)(F)F)C(F)(F)F | 28.2 ± 1.9 | 25.3 ± 1.7 | 23.5 ± 1.6
20 | c1ccccc1 [benzene] + CCC[N+]1(C)CCCC1.O=S(=O)([N-]S(=O)(=O)C(F)(F)F)C(F)(F)F | 0.99 ± 0.06 | 1.01 ± 0.06 | 1.03 ± 0.06
21 | Cc1ccc(C)cc1 [1,4-dimethylbenzene] + CCC[N+]1(C)CCCC1.O=S(=O)([N-]S(=O)(=O)C(F)(F)F)C(F)(F)F | 1.96 ± 0.13 | 2 ± 0.14 | 2.03 ± 0.14
22 | CCOCC [diethyl ether] + CCC[N+]1(C)CCCC1.O=S(=O)([N-]S(=O)(=O)C(F)(F)F)C(F)(F)F | 2.62 ± 0.18 | 2.7 ± 0.18 | 2.75 ± 0.19
23 | C#CCCCCC [1-heptyne] + CCC[N+]1(C)CCCC1.O=S(=O)([N-]S(=O)(=O)C(F)(F)F)C(F)(F)F | 4.52 ± 0.31 | 4.52 ± 0.31 | 4.51 ± 0.31

Row | Compound | activity coefficient (323.15 K) | activity coefficient (333.15 K) | activity coefficient (343.15 K)
24 | C1CCCCC1 [cyclohexane] + CCC[N+]1(C)CCCC1.O=S(=O)([N-]S(=O)(=O)C(F)(F)F)C(F)(F)F | 10.2 ± 0.7 | 9.53 ± 0.65 | 8.53 ± 0.58
25 | CC1CCCCC1 [methylcyclohexane] + CCC[N+]1(C)CCCC1.O=S(=O)([N-]S(=O)(=O)C(F)(F)F)C(F)(F)F | 14.1 ± 0.96 | 12.8 ± 0.87 | 12.2 ± 0.83
26 | CCC(C)CC [3-methylpentane] + CCC[N+]1(C)CCCC1.O=S(=O)([N-]S(=O)(=O)C(F)(F)F)C(F)(F)F | 14.3 ± 0.98 | 13.5 ± 0.92 | 11.7 ± 0.8
27 | C=CCCCC [hex-1-ene] + CCC[N+]1(C)CCCC1.O=S(=O)([N-]S(=O)(=O)C(F)(F)F)C(F)(F)F | 7.96 ± 0.54 | 7.75 ± 0.53 | 7.65 ± 0.52
28 | CCCO [propan-1-ol] + CCC[N+]1(C)CCCC1.O=S(=O)([N-]S(=O)(=O)C(F)(F)F)C(F)(F)F | 2.17 ± 0.15 | 1.95 ± 0.13 | 1.79 ± 0.12
29 | CCC[N+](=O)[O-] [1-nitropropane] + CCC[N+]1(C)CCCC1.O=S(=O)([N-]S(=O)(=O)C(F)(F)F)C(F)(F)F | 0.77 ± 0.05 | 0.77 ± 0.05 | 0.77 ± 0.05
30 | CC(C)CC(C)(C)C [2,2,4-trimethylpentane] + CCC[N+]1(C)CCCC1.O=S(=O)([N-]S(=O)(=O)C(F)(F)F)C(F)(F)F | 22.5 ± 1.5 | 22 ± 1.5 | 21.6 ± 1.5
31 | CCO [ethanol] + CCC[N+]1(C)CCCC1.O=S(=O)([N-]S(=O)(=O)C(F)(F)F)C(F)(F)F | 1.75 ± 0.12 | 1.57 ± 0.1 | 1.49 ± 0.1
32 | c1ccncc1 [pyridine] + CCC[N+]1(C)CCCC1.O=S(=O)([N-]S(=O)(=O)C(F)(F)F)C(F)(F)F | 0.63 ± 0.04 | 0.63 ± 0.04 | 0.64 ± 0.04
33 | CCCCCCCCC [nonane] + CCC[N+]1(C)CCCC1.O=S(=O)([N-]S(=O)(=O)C(F)(F)F)C(F)(F)F | 55.5 ± 3.8 | 48.7 ± 3.3 | 47.5 ± 3.2
34 | CCC(=O)CC [pentan-3-one] + CCCC[N+]1(C)CCCC1.O=S(=O)([N-]S(=O)(=O)C(F)(F)F)C(F)(F)F | 0.73 ± 0.05 | 0.75 ± 0.05 | 0.77 ± 0.05
35 | CCCCO [butan-1-ol] + CCCC[N+]1(C)CCCC1.O=S(=O)([N-]S(=O)(=O)C(F)(F)F)C(F)(F)F | 2.59 ± 0.18 | 2.32 ± 0.16 | 2.08 ± 0.14
36 | ClC(Cl)(Cl)Cl [tetrachloromethane] + CCCC[N+]1(C)CCCC1.O=S(=O)([N-]S(=O)(=O)C(F)(F)F)C(F)(F)F | 2.44 ± 0.17 | 2.45 ± 0.17 | 2.47 ± 0.17
37 | ClC(Cl)(Cl)Cl [tetrachloromethane] + CCC[N+]1(C)CCCC1.O=S(=O)([N-]S(=O)(=O)C(F)(F)F)C(F)(F)F | 2.55 ± 0.17 | 2.62 ± 0.18 | 2.64 ± 0.18
38 | Cc1ccccc1 [toluene] + CCC[N+]1(C)CCCC1.O=S(=O)([N-]S(=O)(=O)C(F)(F)F)C(F)(F)F | 1.37 ± 0.09 | 1.38 ± 0.09 | 1.45 ± 0.1
39 | CCCCCCCCCCC [undecane] + CCC[N+]1(C)CCCC1.O=S(=O)([N-]S(=O)(=O)C(F)(F)F)C(F)(F)F | 108 ± 7.4 | 92.8 ± 6.4 | 85.1 ± 5.8
40 | CCC(C)CC [3-methylpentane] + CCCC[N+]1(C)CCCC1.O=S(=O)([N-]S(=O)(=O)C(F)(F)F)C(F)(F)F | 12.3 ± 0.84 | 11.9 ± 0.81 | 11 ± 0.75
41 | CC(C)O [propan-2-ol] + CCC[N+]1(C)CCCC1.O=S(=O)([N-]S(=O)(=O)C(F)(F)F)C(F)(F)F | 1.92 ± 0.13 | 1.79 ± 0.12 | 1.62 ± 0.11
42 | ClCCl [dichloromethane] + CCC[N+]1(C)CCCC1.O=S(=O)([N-]S(=O)(=O)C(F)(F)F)C(F)(F)F | 0.66 ± 0.05 | 0.72 ± 0.05 | 0.78 ± 0.05
43 | CCCCCCC [heptane] + CCC[N+]1(C)CCCC1.O=S(=O)([N-]S(=O)(=O)C(F)(F)F)C(F)(F)F | 24 ± 1.6 | 23.1 ± 1.6 | 22.3 ± 1.5
44 | CCCCCCCCCCC [undecane] + CCCC[N+]1(C)CCCC1.O=S(=O)([N-]S(=O)(=O)C(F)(F)F)C(F)(F)F | 76.9 ± 5.3 | 68.2 ± 4.7 | 61.1 ± 4.2
45 | CCC(C)=O [butanone] + CCC[N+]1(C)CCCC1.O=S(=O)([N-]S(=O)(=O)C(F)(F)F)C(F)(F)F | 0.57 ± 0.04 | 0.58 ± 0.04 | 0.64 ± 0.04
46 | C#CCCCCC [1-heptyne] + CCCC[N+]1(C)CCCC1.O=S(=O)([N-]S(=O)(=O)C(F)(F)F)C(F)(F)F | 3.98 ± 0.27 | 3.98 ± 0.27 | 3.94 ± 0.27
